The numbers were not newly measured in patent US20030114415A1, “Compositions and methods for treating and preventing memory impairment using citicoline” (priority 2001, published 2003), which cites them from elsewhere.

For data set [1] the following is noted: rat; 500 mg/kg/day citicoline.
Data set [2] has as its system stroke and head trauma patients.
The conditions of data set [3]: human; 1000 mg citicoline per day.

Read-outs that look alike come from different tables or passages of the source.

Regarding `C[N+](C)(C)CCOP(=O)(O)OP(=O)([O-])OC[C@H]1O[C@@H](n2ccc(N)nc2=O)[C@H](O)[C@@H]1O` [citicoline, cytidine-5′-diphosphocholine], the plasma choline concentration in data set [1] and in data set [3] was 1.5 ng/mL each time. Also, the “negative side effects, including dizziness” value in data set [2] (patients, 500 mg per day) is listed as “minimizing any negative side effects”. Further, the tolerability result in data set [2] (stroke and head trauma patients, 250 mg/day to 1000 mg/day for several weeks) is on record as “tolerated citicoline well”. In addition, where the note is “oral”, the “absorption when administered orally” value is “absorbed almost completely”. Besides, the “bioavailability when administered orally” value (oral compared with intravenous) was “approximately the same as when administered intravenously”.
